# Reference: patent US20180064808A1, “COMBINATION THERAPY OF BISPECIFIC ANTIBODIES SPECIFIC FOR FAP AND DR5 AND CHEMOTHERAPEUTIC AGENTS” (Hoffmann-La Roche Inc., priority 2014, published 2018)
# Assays:
# FAP = assay: Binding mode, specificity and species cross-reactivity of FAP binder 28H1
# Panc1 = assay: Combination screen PDAC cell lines (CellTiter-Glo); type: cell-based; conditions: Panc1, n.s. = not significant
# Experimental: (§1) A panel of CRC and PDAC cell lines was assessed and combination partners of potential clinical relevance for the respective tumor indications were used for evaluation of combination effects (CRC: irinotecan, oxaliplatin, 5-FU, MDM2 inhibitor (RG7388), Bcl-2 inhibitor (ABT199); PDAC: Abraxane, Paclitaxel, Gemcitabine, Doxorubicin, MDM2i (RG7388), Bc12i (ABT199), Bortezomib, Cyclopamine, PARP inhibitor (PJ34)).
# (§2) Cells were seeded (numbers vary depending on the cell line) in black 96-well microplate with clear, flat bottom and incubated overnight at 37° C. and 5% CO2. After checking the adherence/confluence of cells, the medium was removed and 100 μl of fresh medium containing the corresponding compound was added to each well. A sequential dilution series (1:4) of 8 concentrations per compound (n=3) were used. Corresponding DMSO concentration and media alone were used as controls.
# (§3) After incubation for 3 days at 37° C. and 5% CO2, 100 μl per well CellTiter-Glo reagent (Promega) was added to the plate. Luminescence was measured after 30 minutes agitation at room temperature. IC50-values were calculated with XL-Fit software. Each experiment with one compound was repeated at least twice.
# (§4) Cells were seeded (numbers vary depending on the cell line) in black 96-well microplate with clear, flat bottom and incubated overnight at 37° C. and 5% CO2. After checking the adherence/confluence of cells, the medium was removed and 100 μl of fresh medium containing the corresponding compound or combination was added to each well.
# (§5) A sequential 1:3 dilution series of 9 concentrations of Drozitumab/anti-human-Fc was done on a 96-well PP-V-bottom microplate (n=6). […] 25 μl/well of the Drozitumab/anti-human-Fc series were then transferred to the cells.
# (§6) After incubation for 3 days at 37° C. and 5% CO2 100 μl per well CellTiter-Glo reagent (Promega) were given to the plates. Luminescence was measured after 30 minutes agitation at room temperature.
# (§7) For each concentration of Drozitumab/anti-human-Fc and Drozitumab/anti-human-Fc+compound triplicates were done on the same plate and each experiment was repeated at least twice.
# Aspc1 = assay: Combination screen PDAC cell lines (CellTiter-Glo); type: cell-based; conditions: Aspc1, n.s. = not significant
# Experimental: as §1, §2, §3, §4, §5, §6, §7
# Bxpc3 = assay: Combination screen PDAC cell lines (CellTiter-Glo); type: cell-based; conditions: Bxpc3, n.s. = not significant
# Experimental: as §1, §2, §3, §4, §5, §6, §7
# Capan2 = assay: Combination screen PDAC cell lines (CellTiter-Glo); type: cell-based; conditions: Capan2
# Experimental: as §1, §2, §3, §4, §5, §6, §7
# HT29 = assay: Combination screen CRC cell lines (CellTiter-Glo); type: cell-based; conditions: n.s. = not significant
# Experimental: as §1, §2, §3, §4, §5, §6, §7
# SW480 = assay: Combination screen CRC cell lines (CellTiter-Glo); type: cell-based
# Experimental: as §1, §2, §3, §4, §5, §6, §7
# HCT116 = assay: Combination screen CRC cell lines (CellTiter-Glo); type: cell-based, human
# Experimental: as §1, §2, §3, §4, §5, §6, §7
# FcγR mutant mice = conditions: cited from earlier work
# [1] = clinical studies; cited from earlier work
compound,measurement,setting,value
"28H1: FAP binder, VH SEQ ID NO. 15 / VL SEQ ID NO. 16, described in WO 2012/020006",Species Cross-Reactivity,FAP,"Human, cyno, murine"
same,Binding Mode,"FAP; cell wraps r13-r15: No interference with signaling/protease function, conformational epitope",conformational epitope
same,Specificity,"FAP; cell wraps r17-r18: No binding to hu DPP-IV (CD26, closest FAP homologue)",No binding to hu DPP-IV
"CC1(C)CCC(CN2CCN(c3ccc(C(=O)NS(=O)(=O)c4ccc(NCC5CCOCC5)c([N+](=O)[O-])c4)c(Oc4cnc5[nH]ccc5c4)c3)CC2)=C(c2ccc(Cl)cc2)C1 [Bcl2i (ABT199), (4-(4-{[2-(4-chlorophenyl)-4,4-dimethylcyclohex-1-en-1-yl]methyl}piperazin-1-yl)-N-({3-nitro-4-[(tetrahydro-2H-pyran-4-ylmethyl)amino]phenyl}sulfonyl)-2-(1H-pyrrolo[2,3-b]pyridin-5-yloxy)benzamide)]",Fold change IC50 (DR5 ab mono vs combo),Panc1,n.s.
same,% max. inhibition (combo),Panc1; second figure of mono/combo,n.s.
same,Fold change IC50 (DR5 ab mono vs combo),Aspc1,n.s.
same,% max. inhibition (combo),Aspc1; second figure of mono/combo,n.s.
same,Fold change IC50 (DR5 ab mono vs combo),Bxpc3,n.s.
same,% max. inhibition (combo),Bxpc3; second figure of mono/combo,n.s.
same,% max. inhibition (mono),Capan2; first figure of mono/combo,20%
same,% max. inhibition (combo),"Capan2; second figure of mono/combo, n.s. = not significant",60%
same,Fold change IC50 (DR5 ab mono vs combo),HT29,3
same,% max. inhibition (combo),HT29; second figure of mono/combo,n.s.
same,IC50 combo,"SW480; DR5 ab + Fc titrated in combination with 1x IC50 of the named compound, 3 days, n.s. = not significant",n.s.
same,% max. inhibition (mono),SW480; first figure of mono/combo,5%
same,Fold change IC50 (DR5 ab mono vs combo),SW480; n.s. = not significant,n.s.
same,% max. inhibition (combo),SW480; second figure of mono/combo,30%
same,Fold change IC50 (DR5 ab mono vs combo),HCT116,500
same,% max. inhibition (mono),HCT116; first figure of mono/combo,50%
same,% max. inhibition (combo),HCT116; second figure of mono/combo,80%
Drozitumab: fully human DR5 agonistic antibody described in US2007/0031414 and WO 2006/083971,in vivo activity,FcγR mutant mice,inactive
same,maximally tolerated dose (MTD),[1],> 20 mg/kg
Tigatuzumab: humanized DR5 agonistic antibody,maximally tolerated dose (MTD),[1],up to 8 mg/kg
